Reference: patent publication US11028079B2 (ConverGene LLC, priority 2015, dated 2021)

molecular target: T1, BRD4 bromodomains (Homo sapiens, UniProt O60885); test: BROMOscan bromodomain competition binding assay (DiscoveRx); settings: Kd from 11 compound concentrations ranging from 0 to 10 μM, read-out: BROMOscan Relative Activity
T1 construct: fused on or other part: T7 phage capsid protein (phage-display fusion; the phage DNA is read out by qPCR)
Summary of the method: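 Compounds in 0.1% DMSO/0.9% MEG competed with a solid-phase acetylated peptide for T7 phage-fused BRD4 bromodomains, with the retained bromodomain measured by qPCR.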

Row | SMILES | Kd [nM]
1 | Cc1noc(C)c1-c1ccc2nc(N3CCN(CC(C)(C)O)CC3)nc(NCc3cccc(Cl)c3)c2c1 [Example 137, 1-(4-(4-((3-chlorobenzyl)amino)-6-(3,5-dimethylisoxazol-4-yl)quinazolin-2-yl)piperazin-1-yl)-2-methylpropan-2-ol] | 500 to 5000
2 | Cc1noc(C)c1-c1ccc2nc(-c3cnn(CC(=O)N(C)C)c3)nc(NCc3cncc(Cl)c3)c2c1 [Example 140, 2-(4-(4-(((5-chloropyridin-3-yl)methyl)amino)-6-(3,5-dimethylisoxazol-4-yl)quinazolin-2-yl)-1H-pyrazol-1-yl)-N,N-dimethylacetamide] | < 500
3 | CNC(=O)Cn1cc(-c2nc(NCc3cncc(Cl)c3)c3cc(-c4c(C)noc4C)ccc3n2)cn1 [Example 141, 2-(4-(4-(((5-chloropyridin-3-yl)methyl)amino)-6-(3,5-dimethylisoxazol-4-yl)quinazolin-2-yl)-1H-pyrazol-1-yl)-N-methylacetamide] | < 500
4 | Cc1noc(C)c1-c1ccc2nc(-c3cnn(CC(N)=O)c3)nc(NCc3cncc(Cl)c3)c2c1 [Example 142, 2-(4-(4-(((5-chloropyridin-3-yl)methyl)amino)-6-(3,5-dimethylisoxazol-4-yl)quinazolin-2-yl)-1H-pyrazol-1-yl)acetamide] | < 500
5 | Cn1cc(-c2ccc3nc(-c4cnn(CCO)c4)nc(NCc4cncc(Cl)c4)c3c2)ccc1=O [Example 143, 5-(4-(((5-chloropyridin-3-yl)methyl)amino)-2-(1-(2-hydroxyethyl)-1H-pyrazol-4-yl)quinazolin-6-yl)-1-methylpyridin-2(1H)-one] | < 500
6 | Cc1noc(C)c1-c1ccc2nc(-c3cnn(CCO)c3)nc(NCc3cncc(Cl)c3)c2c1 [Example 144, 2-(4-(4-(((5-chloropyridin-3-yl)methyl)amino)-6-(3,5-dimethylisoxazol-4-yl)quinazolin-2-yl)-1H-pyrazol-1-yl)ethanol] | < 500
7 | Cn1cc(-c2ccc3nc(-c4cnn(CC(N)=O)c4)nc(NCc4cncc(Cl)c4)c3c2)ccc1=O [Example 145, 2-(4-(4-(((5-chloropyridin-3-yl)methyl)amino)-6-(1-methyl-6-oxo-1,6-dihydropyridin-3-yl)quinazolin-2-yl)-1H-pyrazol-1-yl)acetamide] | 500 to 5000
8 | CN(C)C(=O)Cn1cc(-c2nc(NCc3cncc(Cl)c3)c3cc(-c4ccc(=O)n(C)c4)ccc3n2)cn1 [Example 146, 2-(4-(4-(((5-chloropyridin-3-yl)methyl)amino)-6-(1-methyl-6-oxo-1,6-dihydropyridin-3-yl)quinazolin-2-yl)-1H-pyrazol-1-yl)-N,N-dimethylacetamide] | < 500
9 | CNC(=O)Cn1cc(-c2nc(NCc3cncc(Cl)c3)c3cc(-c4ccc(=O)n(C)c4)ccc3n2)cn1 [Example 147, 2-(4-(4-(((5-chloropyridin-3-yl)methyl)amino)-6-(1-methyl-6-oxo-1,6-dihydropyridin-3-yl)quinazolin-2-yl)-1H-pyrazol-1-yl)-N-methylacetamide] | < 500
10 | Cn1cc(-c2ccc3nc(-c4cnn(CC(C)(C)O)c4)nc(NCc4cncc(Cl)c4)c3c2)ccc1=O [Example 148, 5-(4-(((5-chloropyridin-3-yl)methyl)amino)-2-(1-(2-hydroxy-2-methylpropyl)-1H-pyrazol-4-yl)quinazolin-6-yl)-1-methylpyridin-2(1H)-one] | 500 to 5000
11 | Cn1cc(-c2ccc3nc(-c4cnn(C(C)(C)CO)c4)nc(NCc4cncc(Cl)c4)c3c2)ccc1=O [Example 149, 5-(4-(((5-chloropyridin-3-yl)methyl)amino)-2-(1-(1-hydroxy-2-methylpropan-2-yl)-1H-pyrazol-4-yl)quinazolin-6-yl)-1-methylpyridin-2(1H)-one] | < 500
12 | Cc1noc(C)c1-c1ccc2nc(-c3cnn(CCO)c3)nc(Nc3ccc(Cl)cc3)c2c1 [Example 150, 2-(4-(4-((4-chlorophenyl)amino)-6-(3,5-dimethylisoxazol-4-yl)quinazolin-2-yl)-1H-pyrazol-1-yl)ethanol] | 500 to 5000
13 | Cc1noc(C)c1-c1ccc2nc(Cl)nc(Nc3ccc(Cl)cc3)c2c1 [Example 151, 2-chloro-N-(4-chlorophenyl)-6-(3,5-dimethylisoxazol-4-yl)quinazolin-4-amine] | > 5000
14 | Cc1noc(C)c1-c1ccc2nc(N3CCN(S(C)(=O)=O)CC3)nc(NCc3cncc(Cl)c3)c2c1 [Example 152, N-((5-chloropyridin-3-yl)methyl)-6-(3,5-dimethylisoxazol-4-yl)-2-(4-(methylsulfonyl)piperazin-1-yl)quinazolin-4-amine] | < 500
15 | Cc1noc(C)c1-c1ccc2nc(N3CCC(S(C)(=O)=O)CC3)nc(NCc3cccc(Cl)c3)c2c1 [Example 153, N-(3-chlorobenzyl)-6-(3,5-dimethylisoxazol-4-yl)-2-(4-(methylsulfonyl)piperidin-1-yl)quinazolin-4-amine] | < 500
16 | Cc1noc(C)c1-c1ccc2nc(N3CCC(S(C)(=O)=O)CC3)nc(NCc3cncc(Cl)c3)c2c1 [Example 154, N-((5-chloropyridin-3-yl)methyl)-6-(3,5-dimethylisoxazol-4-yl)-2-(4-(methylsulfonyl)piperidin-1-yl)quinazolin-4-amine] | < 500
17 | Cc1noc(C)c1-c1ccc2nc(N3CCN(S(C)(=O)=O)CC3)nc(NCc3cccc(Cl)c3)c2c1 [Example 155, N-(3-chlorobenzyl)-6-(3,5-dimethylisoxazol-4-yl)-2-(4-(methylsulfonyl)piperazin-1-yl)quinazolin-4-amine] | < 500
18 | Cc1noc(C)c1-c1ccc2nc(N3CCC(C)(C#N)CC3)nc(NCc3cccc(Cl)c3)c2c1 [Example 156, 1-(4-((3-chlorobenzyl)amino)-6-(3,5-dimethylisoxazol-4-yl)quinazolin-2-yl)-4-methylpiperidine-4-carbonitrile] | 500 to 5000

The remaining lines, values ahead:

Row | Kd [nM] | SMILES
19 | < 500 | Cn1cc(-c2ccc3nc(N4CCN(CCO)CC4)nc(NCc4cncc(Cl)c4)c3c2)ccc1=O [Example 126, 5-(4-(((5-chloropyridin-3-yl)methyl)amino)-2-(4-(2-hydroxyethyl)piperazin-1-yl)quinazolin-6-yl)-1-methylpyridin-2(1H)-one]
20 | < 500 | Cn1cc(-c2ccc3nc(N4CCN(CC(N)=O)CC4)nc(NCc4cncc(Cl)c4)c3c2)ccc1=O [Example 127, 2-(4-(4-(((5-chloropyridin-3-yl)methyl)amino)-6-(1-methyl-6-oxo-1,6-dihydropyridin-3-yl)quinazolin-2-yl)piperazin-1-yl)acetamide]
21 | < 500 | CNC(=O)CN1CCN(c2nc(NCc3cncc(Cl)c3)c3cc(-c4ccc(=O)n(C)c4)ccc3n2)CC1 [Example 128, 2-(4-(4-(((5-chloropyridin-3-yl)methyl)amino)-6-(1-methyl-6-oxo-1,6-dihydropyridin-3-yl)quinazolin-2-yl)piperazin-1-yl)-N-methylacetamide]
22 | < 500 | CN(C)C(=O)CN1CCN(c2nc(NCc3cncc(Cl)c3)c3cc(-c4ccc(=O)n(C)c4)ccc3n2)CC1 [Example 129, 2-(4-(4-(((5-chloropyridin-3-yl)methyl)amino)-6-(1-methyl-6-oxo-1,6-dihydropyridin-3-yl)quinazolin-2-yl)piperazin-1-yl)-N,N-dimethylacetamide]
23 | < 500 | Cc1noc(C)c1-c1ccc2nc(N3CCN(CCCN(C)C)CC3)nc(NCc3cncc(Cl)c3)c2c1 [Example 130, N-((5-chloropyridin-3-yl)methyl)-2-(4-(3-(dimethylamino)propyl)piperazin-1-yl)-6-(3,5-dimethylisoxazol-4-yl)quinazolin-4-amine]
24 | < 500 | Cc1noc(C)c1-c1ccc2nc(N3CCN(C(=O)CN)CC3)nc(NCc3cncc(Cl)c3)c2c1 [Example 131, 2-amino-1-(4-(4-(((5-chloropyridin-3-yl)methyl)amino)-6-(3,5-dimethylisoxazol-4-yl)quinazolin-2-yl)piperazin-1-yl)ethanone]
25 | < 500 | Cc1noc(C)c1-c1ccc2nc(N3CCN(C(=O)CO)CC3)nc(NCc3cncc(Cl)c3)c2c1 [Example 132, 1-(4-(4-(((5-chloropyridin-3-yl)methyl)amino)-6-(3,5-dimethylisoxazol-4-yl)quinazolin-2-yl)piperazin-1-yl)-2-hydroxyethanone]
26 | < 500 | Cn1cc(-c2ccc3nc(N4CCN(C(=O)CN)CC4)nc(NCc4cncc(Cl)c4)c3c2)ccc1=O [Example 133, 5-(2-(4-(2-aminoacetyl)piperazin-1-yl)-4-(((5-chloropyridin-3-yl)methyl)amino)quinazolin-6-yl)-1-methylpyridin-2(1H)-one]
27 | < 500 | Cn1cc(-c2ccc3nc(N4CCN(CC(C)(C)O)CC4)nc(NCc4cccc(Cl)c4)c3c2)ccc1=O [Example 134, 5-(4-((3-chlorobenzyl)amino)-2-(4-(2-hydroxy-2-methylpropyl)piperazin-1-yl)quinazolin-6-yl)-1-methylpyridin-2(1H)-one]
28 | < 500 | Cn1cc(-c2ccc3nc(N4CCN(CC(C)(C)O)CC4)nc(NCc4cncc(Cl)c4)c3c2)ccc1=O [Example 135, 5-(4-(((5-chloropyridin-3-yl)methyl)amino)-2-(4-(2-hydroxy-2-methylpropyl)piperazin-1-yl)quinazolin-6-yl)-1-methylpyridin-2(1H)-one]
29 | < 500 | Cc1noc(C)c1-c1ccc2nc(N3CCN(CC(C)(C)O)CC3)nc(NCc3cncc(Cl)c3)c2c1 [Example 136, 1-(4-(4-(((5-chloropyridin-3-yl)methyl)amino)-6-(3,5-dimethylisoxazol-4-yl)quinazolin-2-yl)piperazin-1-yl)-2-methylpropan-2-ol]
30 | < 500 | Cc1noc(C)c1-c1ccc2nc(-c3cnn(C(C)(C)CO)c3)nc(NCc3cncc(Cl)c3)c2c1 [Example 138, 2-(4-(4-(((5-chloropyridin-3-yl)methyl)amino)-6-(3,5-dimethylisoxazol-4-yl)quinazolin-2-yl)-1H-pyrazol-1-yl)-2-methylpropan-1-ol]
31 | < 500 | Cc1noc(C)c1-c1ccc2nc(-c3cnn(CC(C)(C)O)c3)nc(NCc3cncc(Cl)c3)c2c1 [Example 139, 1-(4-(4-(((5-chloropyridin-3-yl)methyl)amino)-6-(3,5-dimethylisoxazol-4-yl)quinazolin-2-yl)-1H-pyrazol-1-yl)-2-methylpropan-2-ol]
